# Assay results published in PubChem BioAssay AID1159560 (GlaxoSmithKline (GSK), 2015).
# Activity calls are given as the source filed them. The rule behind the calls is not given here.
# Test system: Leishmania donovani growth inhibition
# Experiment: antileishmanial activity against L. donovani parasites (AID 1159560);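 note: parasites exposed to compound for 72 h before the viability read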
row,Structure (SMILES),IC50
1,CCS(=O)(=O)Nc1ccc(C2=NN(C(=O)c3cccs3)C(c3ccccc3OC)C2)cc1 (configuration not stated),1.3 µM
2,Cc1ccc(NC(=O)c2ccnc(N3CCCC3)c2)cc1-c1ccsc1C(N)=O,> 50 µM (inactive)
3,Cc1cc(C)cc(NS(=O)(=O)c2cc(-c3cc(C)[nH]n3)ccc2C)c1,2.5 µM
4,CC(C)c1sc(Cl)nc1C(=O)NCCc1nc(C(=O)Nc2ccc3c(c2)OCO3)cs1,4 µM
5,c1ccc(Nc2nc(-c3ccccn3)cc(N3CCOCC3)n2)cc1,6.3 µM
6,CC(C)c1nn(-c2nc(N)nc(-c3ccccn3)n2)c(N)c1C1CCCCC1,7.9 µM
7,CCN(CC)c1nc(N(C)C)nc2c1CN(Cc1ccccc1)CC2,7.9 µM
8,CC1=NN(C(=O)CCn2cnc([N+](=O)[O-])n2)C(O)(C(F)(F)F)C1 (configuration not stated),> 50 µM (inactive)
9,COc1ccc2c(Cl)c(C(=O)N3CCC3)sc2c1Cl,> 50 µM (inactive)
10,CC(=O)Nc1ccc(CN2CCC(N3CC(c4ccccc4)(c4ccccc4)OCC3=O)CC2)cc1,0.5 µM
11,COc1ccccc1CNc1cc(C2CC2)nc(-c2nccn2C)n1,1 µM
12,Cc1cc(Br)sc1CNCCCNc1cc(=O)c2ccccc2[nH]1,> 50 µM (inactive)
13,CC(c1ccc2c(c1)CCCC2)N(C)c1ncc2c(N)nc(N)nc2n1 (configuration not stated),2.5 µM
14,COc1ccc(-c2cnc(NC(=O)c3ccc(F)cc3)n2C)cc1,3.2 µM
15,Oc1c(-c2n[nH]c(CCc3ccccc3)n2)ncc2cccnc12,0.32 µM
16,O=C(NCCCn1cnc2ccccc21)c1ccc(NC(=O)c2ccco2)cc1,1.3 µM
17,CC(C(=O)Nc1ccc(Br)cc1)N1CCN(c2ccc([N+](=O)[O-])cc2)CC1 (configuration not stated),> 50 µM (inactive)
18,Clc1ccc(OCCN2CCCCC2c2cccnc2)c(Cl)c1 (configuration not stated),5 µM
19,CCCc1cc(C(=O)Nc2ncc(-c3cccc(Br)c3)n2C)n[nH]1,6.3 µM
20,COc1ccc(CN(C)Cc2ccncc2)cc1-c1ccc(S(=O)(=O)NC2CCC2)s1,40 µM
21,COc1ccc(NS(=O)(=O)c2cc(-c3cc(C)[nH]n3)ccc2C)cc1OC,1 µM
22,CC(Cn1ccnc1)NC(=O)C1CC1c1cccc(Cl)c1Cl (configuration not stated),16 µM

row,Structure (SMILES),IC50
1,COc1ccc(OC)c(S(=O)(=O)N(Cc2c(F)cccc2F)[C@@H]2CCN(C#N)C2)c1,16 µM
2,Cc1ccc2ccc(C(Nc3ccccn3)c3cccnc3)c(O)c2n1 (configuration not stated),0.4 µM
3,NC(=O)c1ccccc1Nc1nc(NC2CCCCC2)nc2[nH]ccc12,20 µM
4,COc1ccc(C(C)N(C)c2ncc3c(N)nc(N)nc3n2)cc1F (configuration not stated),4 µM
5,O=C(NCC1CCCCC1)c1cc(=O)c2ccccc2o1,5 µM
6,c1cncc(CN(Cc2ccco2)Cc2cn[nH]c2-c2cccs2)c1,32 µM
7,O=C(NCCNc1noc(-c2ccc([N+](=O)[O-])cc2)n1)c1ccc(Cl)cc1,> 50 µM (inactive)
8,O=C(NCCc1ccccc1Cl)c1cccn1-c1cccnc1,6.3 µM
9,Cc1ccccc1NS(=O)(=O)c1ccc2[nH]cc(C(=O)NC3CCCC(C)C3C)c(=O)c2c1 (configuration not stated),25 µM
10,O=C(Nc1ccc(S(=O)(=O)N2CCCC2)cc1)c1ccc([N+](=O)[O-])s1,7.9 µM
11,COc1ccc(OC)c(NC(=O)c2ccc([N+](=O)[O-])o2)c1,25 µM
12,Cc1c(C#N)c([N+](=O)[O-])nn1Cc1cccc(Cl)c1Cl,> 50 µM (inactive)
13,CS(=O)(=O)NC1CCC(Nc2ncc(Br)c(Nc3ccccc3C(N)=O)n2)CC1 (configuration not stated),1 µM
14,Cc1cc(C)nc(N2CCC(N(Cc3cccnc3)C(=O)c3cccc(C#N)c3)CC2)n1,5 µM
15,C[C@@H](Oc1cc(-n2cnc3ccc(C(O)CO)cc32)sc1C(N)=O)c1ccccc1C(F)(F)F (some centres not stated),16 µM
16,Cc1cccc(Nc2nc(-c3ccccn3)cs2)n1,4 µM
17,O=c1cc(NCCCNC2CCOc3c(I)cc(Cl)cc32)[nH]c2ccccc12 (configuration not stated),32 µM
18,CN(C)c1ccc(N)cc1CN(CC1CCCO1)S(C)(=O)=O (configuration not stated),4 µM
19,Fc1ccccc1N1C[C@H]2CCN(c3cccnc3)C[C@H]2C1,13 µM
20,Cc1c(Nc2cc(C3CC3)[nH]n2)ccc(C#N)c1Cl,20 µM
21,CC(Cn1ccnc1)NC(=O)COc1ccc(Cl)c(Cl)c1 (configuration not stated),> 50 µM (inactive)
22,COc1ccc(Nc2nccc(N(C)c3n[nH]c4c(F)cccc34)n2)cc1S(C)(=O)=O,25 µM

row,Structure (SMILES),IC50
1,CC1(Oc2cncc(Cl)c2)CCN(Cc2cc3ccccc3[nH]2)C1 (configuration not stated),> 50 µM (inactive)
2,CNS(=O)(=O)c1ccccc1Nc1nc(Nc2ccnn2C)ncc1Cl,0.2 µM
3,OC[C@@H](Nc1nccc(-c2c(-c3ccc(F)cc3)ncn2C2CCNCC2)n1)c1ccccc1,> 50 µM (inactive)
4,Cc1ccc2c(c1)SC(C(=O)Nc1n[nH]c(-c3ccccn3)n1)C2 (configuration not stated),6.3 µM
5,O=C1CN(C(=O)c2cccc(Nc3ncc(-c4ccc5c(c4)OCO5)cn3)c2)CCN1,1.6 µM
6,COc1ccc(C(=O)Nc2ccc(NC(=O)CO)cc2)cc1,> 50 µM (inactive)
7,O=C(Nc1nc(-c2ccccn2)cs1)C1CCc2ccccc2C1 (configuration not stated),5 µM
8,CCN(CC)c1ncc(C(=O)c2ccc([N+](=O)[O-])o2)s1,5 µM
9,CCCc1nc2nc(N)nc(N)c2cc1CC,2 µM
10,O=C(N[C@H](CO)c1ccccc1)c1ccc(-c2c[nH]c3nccc(C(F)(F)F)c23)s1,32 µM
11,COc1ncc(-c2ccc3nccc(-c4ccncc4)c3c2)cc1NS(C)(=O)=O,3.2 µM
12,COc1ccc(S(=O)(=O)Nc2ccc(C(=O)Nc3nc(-c4ccccn4)cs3)cc2)cc1,1 µM
13,Cc1nc(-c2nc(NCc3ccc(Cl)cc3)c3cccnc3c2O)n[nH]1,2 µM
14,CN1CCN(c2nc(-c3ccc(Cl)cc3)c3c(N)n(C)nc3n2)CC1,> 50 µM (inactive)
15,O=C(Nc1nc(-c2ccc(F)cc2)cs1)c1ccc([N+](=O)[O-])s1,0.63 µM
16,Cc1[nH]c2ccccc2c(=O)c1Cc1c(C)[nH]c2ccccc2c1=O,20 µM
17,FC(F)(F)c1cc(C2CCCN(Cc3c[nH]c4ccccc34)C2)nc2ncnn12 (configuration not stated),> 50 µM (inactive)
18,O=C(COc1ncnc2cc([N+](=O)[O-])ccc12)NC(=O)NC1CCCCC1,> 50 µM (inactive)
19,CNc1cc(Cn2c(C(=O)c3cc(C)cc(Cl)c3)c(C(C)C)c(=O)[nH]c2=O)ccn1,> 50 µM (inactive)
20,O=C(NCCc1nc(-c2ccc(F)c(F)c2)n[nH]1)C1CCCCC1,> 50 µM (inactive)
21,Cc1cc(Br)cc(C(=O)c2c(C(C)C)c(=O)[nH]c(=O)n2Cc2ccnc(N)c2)c1,> 50 µM (inactive)
22,CCn1c(-c2nonc2N)nc2c([C@@H](C)O)ncc(O[C@H](CN)c3ccccc3)c21,20 µM

row,Structure (SMILES),IC50
1,Cc1[nH]n2c(=O)c3c(nc2c1-c1ccc(F)cc1)CCCC3,1.3 µM
2,O=C(CN(Cc1ccccn1)Cc1ccccn1)NCc1ccc(-c2csnn2)cc1,7.9 µM
3,CNC(=O)C1Cc2ccccc2N1C(=O)Cc1ccc(OC)cc1 (configuration not stated),> 50 µM (inactive)
4,Cc1ccc(CNC2CCN(C[C@@H]3Cn4c(=O)ccc5ccc(=O)n3c54)CC2)cc1F,> 50 µM (inactive)
5,Cc1[nH]nc(C(F)(F)F)c1NC(=O)CCn1cc(Cl)c([N+](=O)[O-])n1,> 50 µM (inactive)
6,NC(=O)c1ccsc1NC(=O)c1ccc([N+](=O)[O-])s1,0.32 µM
7,CCN(CC)c1ccc(S(=O)(=O)N(CC)CC)c2nonc12,6.3 µM
8,Cc1cc2cncn2c(C2CCCCN2C(=O)c2cccs2)n1 (configuration not stated),0.4 µM
9,COc1ccc(OC)c2c(=O)c(Cc3ccccc3)c(C)[nH]c12,0.4 µM
10,O=C(NCCc1ccccn1)C(c1cn[nH]c1)N1CCN(c2ccc(Cl)c(Cl)c2)CC1 (configuration not stated),2.5 µM
11,O=C(Nc1nccs1)c1ccccc1Cn1cc([N+](=O)[O-])cn1,> 50 µM (inactive)
12,COc1ccc2ncc(Cl)c(CCN3CC[C@H](NCc4cc5c(cn4)OCS5)[C@@H](O)C3)c2n1,2 µM
13,COc1ccc(NS(=O)(=O)c2cccc(NC(=O)c3cc(F)cc(F)c3)c2)cc1,3.2 µM
14,CCc1ccc2nc(NC(=O)c3cc(N4CCOCC4)ccn3)sc2c1,2 µM
15,O=C(c1cccc(Nc2ncc(-c3ccc4c(c3)OCO4)cn2)c1)N1CCOCC1,2 µM
16,COc1cc(-c2noc(CC#N)n2)ccc1OC(F)F,> 50 µM (inactive)
17,Cn1c(CN2CCN(c3ncc(C(F)(F)F)cc3Cl)CC2)nc2ccncc21,5 µM
18,Cc1ccc(NC(=O)c2ccc(Cl)c(NC(=O)c3ccc([N+](=O)[O-])cc3)c2)cc1,> 50 µM (inactive)
19,Cn1nc(C(=O)N2CCc3ccccc32)c2c1CCS(=O)(=O)C2,4 µM
20,CN(Cc1nc2ccccc2s1)C(=O)C=Cc1cc2ccccc2o1,50 µM
21,OCCCNc1nc(Nc2ccncc2)nc2ccccc12,40 µM
22,CN(C)c1ccc(-c2cc3nccnc3c(OC[C@H]3CCCNC3)n2)cn1,> 50 µM (inactive)

row,Structure (SMILES),IC50
1,Cc1cc(C)c(C#N)c(SCC(=O)c2ccc3c(c2)OCO3)n1,> 50 µM (inactive)
2,N#Cc1cc(N2CCCC2=O)ccc1Sc1ccccc1CO,> 50 µM (inactive)
3,Nc1nonc1-c1nc2cncc(C(=O)N3CC[C@H](N)C3)c2n1CC1CC1,> 50 µM (inactive)
4,Cc1ccnc(NS(=O)(=O)c2ccc(NC(=O)c3ccc([N+](=O)[O-])s3)cc2)n1,4 µM
5,CC(C)Nc1nc(Cl)nc2ccccc12,20 µM
6,Nc1nccc(-c2csc(Nc3ccc(Cl)cc3)n2)n1,4 µM
7,CC(C)c1cc(C(=O)N2CCCC(c3cc4ncccc4[nH]3)C2)on1 (configuration not stated),> 50 µM (inactive)
8,O=[N+]([O-])c1ccc(C2=CC(c3ccccc3)=NCCN2)cc1,> 50 µM (inactive)
9,c1ccc(Nc2nc3ccccc3[nH]2)nc1,25 µM
10,O=C(Nc1nc2ccccc2[nH]1)c1c(O)c2cccc3c2n(c1=O)CC3,2.5 µM
11,COc1ccc(C(C)(C)C)cc1S(=O)(=O)n1ccnc1,40 µM
12,O=S(=O)(NCC(c1cccnc1)N1CCN(c2ccccc2F)CC1)c1ccc(F)cc1 (configuration not stated),4 µM
13,CCc1nn(-c2ncc(F)c(NC(C)C)n2)c(N)c1C1CCCCC1,3.2 µM
14,Cc1cnc(Nc2cc(Cc3ccccc3)nc(NC3CCC(O)CC3)n2)s1 (configuration not stated),0.79 µM
15,CC(C)(C)Nc1nc(-c2ccccn2)nc2ccccc12,6.3 µM
16,N#Cc1cccc(Nc2nccc(N3CCC(NS(=O)(=O)c4cccc(C#N)c4)CC3)n2)c1,0.63 µM
17,COc1ncc(-c2ccc3ncnc(N4CCOCC4)c3c2)cc1NS(C)(=O)=O,3.2 µM
18,CN(Cc1ccccc1)Cc1nnnn1C1CCN(Cc2ccc(-n3ccnc3)cc2)CC1,> 50 µM (inactive)
19,O=C(NNC(=O)c1ccccn1)c1ccc(-c2ccccc2)cc1,3.2 µM
